# Assay results: patent US12606528B2, “Methods and materials for inhibiting NF-kB activity” (University of Pittsburgh - Of the Commonwealth System of …, priority 2019, dated 2026)
# Like-named read-outs stand apart in the source and are kept apart here.
# How the values were obtained:
# NF-κB = NF-κB assay: THP1-NF-κB-LUC cells, LPS-stimulated secreted luciferase; type: cell-based; conditions: THP1-NF-κB-LUC cells, read-out: IC50 (NF-κB assay)
# How it was run: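 THP1-NF-κB-LUC cells (25k/well) were pretreated with compounds for 2 h, then stimulated with LPS (10 ng/mL) for 18 h. Secreted luciferase was measured and normalized to vehicle, and IC50 was fitted from the concentration series.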
# TNF release = assay: TNF assay: TNF release from LPS-stimulated human PBMCs (TNF ELISA); type: cell-based; conditions: PBMC, read-out: IC50 (TNF assay)
# How it was run: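 Human PBMCs at 10k/well pretreated with compound dilutions 2 h, then stimulated with LPS (10 ng/mL) for 18 h. TNF in supernatants quantified by ELISA; IC50 for inhibition of TNF release fitted from concentration–response.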
# [1] = LPS-stimulated human PBMCs, TNF ELISA
# [2] = compounds 2 hours before LPS (10 ng/mL) for 18 hours, secreted luciferase
# [3] = human PBMCs, compounds 2 hours before LPS (10 ng/ml) for 18 hours, supernatant TNF ELISA
IC50 (NF-κB; LPS-stimulated),IC50 (TNF release; [1]),IC50 (NF-κB; [2]),IC50 (TNF release; [3]),SMILES
< 100 nM,< 0.1 µM,–,–,COCCS(=O)(=O)c1oc(-c2ccccc2)nc1S(=O)(=O)c1ccc(C)cc1 [BC19266]
< 100 nM,0.1 to 1 µM,–,–,Cc1ccc(S(=O)(=O)c2nc(-c3ccccc3)oc2S(=O)(=O)C2CCCCC2)cc1 [BC19267]
100 to 1000 nM,< 0.1 µM,–,–,CCC[S+]([O-])c1oc(-c2ccccc2)nc1S(=O)(=O)c1cccc(F)c1 (stereo not shown) [BC19268]
100 to 1000 nM,< 0.1 µM,–,–,CC(C)S(=O)(=O)c1oc(-c2ccccc2)nc1S(=O)(=O)c1cccc(F)c1 [BC19269]
< 100 nM,< 0.1 µM,–,–,CC(C)CS(=O)(=O)c1oc(-c2ccccc2)nc1S(=O)(=O)c1cccc(F)c1 [BC19270]
100 to 1000 nM,< 0.1 µM,–,–,O=S(=O)(CC1CC1)c1oc(-c2ccccc2)nc1S(=O)(=O)c1cccc(F)c1 [BC19271]
< 100 nM,< 0.1 µM,–,–,COCC[S+]([O-])c1oc(-c2ccccc2)nc1S(=O)(=O)c1cccc(F)c1 (stereo not shown) [BC19272]
100 to 1000 nM,0.1 to 1 µM,–,–,CCCS(=O)(=O)c1oc(-c2ccccc2)nc1S(=O)(=O)c1ccc(F)c(F)c1 [BC19273]
< 100 nM,0.1 to 1 µM,–,–,CC(C)S(=O)(=O)c1oc(-c2ccccc2)nc1S(=O)(=O)c1ccc(F)c(F)c1 [BC19274]
< 100 nM,< 0.1 µM,–,–,CC(C)CS(=O)(=O)c1oc(-c2ccccc2)nc1S(=O)(=O)c1ccc(F)c(F)c1 [BC19275]
100 to 1000 nM,< 0.1 µM,–,–,COCCS(=O)(=O)c1oc(-c2ccccc2)nc1S(=O)(=O)c1ccc(F)c(F)c1 [BC19276]
< 100 nM,0.1 to 1 µM,–,–,O=S(=O)(c1ccc(F)c(F)c1)c1nc(-c2ccccc2)oc1S(=O)(=O)C1CCCCC1 [BC19277]
< 100 nM,< 0.1 µM,–,–,CC(C)CS(=O)(=O)c1oc(-c2ccccc2)nc1S(=O)(=O)c1ccc(Cl)cc1 [BC19278]
100 to 1000 nM,0.1 to 1 µM,–,–,CS(=O)(=O)c1sc(-c2ccccc2)nc1S(=O)(=O)c1ccc(F)c(F)c1 [BC19279]
–,–,1000 to 10000 nM,> 10 µM,COc1ccc(NS(=O)(=O)c2cc3c(cc2Cl)NC(=O)C(C)O3)cc1Cl (stereo not shown) [BC19280]
–,–,100 to 1000 nM,> 10 µM,CCOc1ccc(NS(=O)(=O)c2cc3c(cc2Cl)NC(=O)C(C)O3)cc1 (stereo not shown) [BC19281]
–,–,100 to 1000 nM,> 10 µM,CCC1Oc2cc(S(=O)(=O)Nc3cccc(C(C)=O)c3)c(Cl)cc2NC1=O (stereo not shown) [BC19282]
–,–,100 to 1000 nM,> 10 µM,CCc1cccc(NS(=O)(=O)c2cc3c(cc2Br)NC(=O)C(C)O3)c1 (stereo not shown) [BC19283]
–,–,< 100 nM,> 10 µM,CC1Oc2cc(S(=O)(=O)Nc3ccc(F)c(F)c3)c(Br)cc2NC1=O (stereo not shown) [BC19284]
–,–,1000 to 10000 nM,> 10 µM,CC1Oc2cc(S(=O)(=O)Nc3ccc(F)cc3Cl)c(Br)cc2NC1=O (stereo not shown) [BC19285]
–,–,< 100 nM,> 10 µM,CCC1Oc2cc(S(=O)(=O)Nc3ccc(Cl)cc3)c(Br)cc2NC1=O (stereo not shown) [BC19286]
–,–,1000 to 10000 nM,> 10 µM,CCC1Oc2cc(S(=O)(=O)NCc3ccccc3)c(Br)cc2NC1=O (stereo not shown) [BC19287]
–,–,< 100 nM,> 10 µM,CCc1cccc(NS(=O)(=O)c2cc(Br)cc3c2OC(C)C(=O)N3)c1 (stereo not shown) [BC19288]

IC50 (NF-κB; LPS-stimulated),IC50 (TNF release; [1]),IC50 (NF-κB; [2]),IC50 (TNF release; [3]),SMILES
–,–,< 100 nM,> 10 µM,CC1Oc2c(cc(Br)cc2S(=O)(=O)Nc2ccc(F)cc2Cl)NC1=O (stereo not shown) [BC19289]
–,–,< 100 nM,> 10 µM,CCC1Oc2c(cc(Br)cc2S(=O)(=O)Nc2ccc(Cl)cc2)NC1=O (stereo not shown) [BC19290]
–,–,< 100 nM,> 10 µM,CC1Oc2c(cc(Cl)cc2S(=O)(=O)Nc2ccccc2)NC1=O (stereo not shown) [BC19291]
–,–,< 100 nM,> 10 µM,COc1ccc(NS(=O)(=O)c2cc(Cl)cc3c2OC(C)C(=O)N3)cc1Cl (stereo not shown) [BC19292]
–,–,100 to 1000 nM,> 10 µM,CC(C)NS(=O)(=O)c1cc(Cl)cc2c1OC(C)C(=O)N2 (stereo not shown) [BC19293]
–,–,1000 to 10000 nM,> 10 µM,CCNS(=O)(=O)c1cc(Cl)cc2c1OC(C)C(=O)N2 (stereo not shown) [BC19294]
< 100 nM,> 10 µM,–,–,CC(=O)N1CC(=O)Nc2ccc(S(=O)(=O)N3CCCC3)cc21 [BC19295]
1000 to 10000 nM,> 10 µM,–,–,CC1C(=O)Nc2ccc(S(=O)(=O)N3CCCC3)cc2N1C (stereo not shown) [BC19296]
1000 to 10000 nM,> 10 µM,–,–,CC1C(=O)Nc2ccc(S(=O)(=O)N3CCCC3)cc2N1C(=O)N1CCOCC1 (stereo not shown) [BC19297]
< 100 nM,> 10 µM,–,–,CC(C)NC(=O)N1c2cc(S(=O)(=O)N3CCCC3)ccc2NC(=O)C1C (stereo not shown) [BC19298]
1000 to 10000 nM,> 10 µM,–,–,COCCNC(=O)N1c2cc(S(=O)(=O)N3CCCC3)ccc2NC(=O)C1C (stereo not shown) [BC19299]
100 to 1000 nM,> 10 µM,–,–,NS(=O)(=O)c1ccc2c(c1)N1CCCC1C(=O)N2 (stereo not shown) [BC19300]
< 100 nM,> 10 µM,–,–,Cc1nnc(-c2ccc3nc(-c4ccc(F)cc4)c(-c4ccc(F)cc4)nc3c2)n1C [BC19301]
1000 to 10000 nM,> 10 µM,–,–,Cn1cc(-c2ccc3nc(-c4ccc(F)cc4)c(-c4ccc(F)cc4)nc3c2)cn1 [BC19302]
> 10000 nM,> 10 µM,–,–,COc1ncc(-c2ccc3nc(-c4ccc(F)cc4)c(-c4ccc(F)cc4)nc3c2)cc1F [BC19303]
1000 to 10000 nM,> 10 µM,–,–,Cc1ccncc1-c1ccc2nc(-c3ccc(F)cc3)c(-c3ccc(F)cc3)nc2c1 [BC19304]
> 10000 nM,> 10 µM,–,–,Cn1ncc2c(-c3ccc4nc(-c5ccc(F)cc5)c(-c5ccc(F)cc5)nc4c3)cccc21 [BC19305]
100 to 1000 nM,> 10 µM,–,–,Fc1ccc(-c2nc3ccc(-c4nncn4CCN4CCOCC4)cc3nc2-c2ccc(F)cc2)cc1 [BC19306]
100 to 1000 nM,< 0.1 µM,–,–,Cc1ccc(S(=O)(=O)c2nc3cc(C(=O)N4CCN(C)CC4)ccc3nc2-c2ccc(F)cc2)cc1F [BC19307]
100 to 1000 nM,< 0.1 µM,–,–,Cc1ccc(S(=O)(=O)c2nc3cc(C(=O)N4CCN(C)CC4)ccc3nc2-c2ccc(F)cc2)cc1 [BC19308]
100 to 1000 nM,1 to 10 µM,–,–,CN1CCC(C(=O)Nc2ccc3nc(-c4ccc(F)cc4)c(-c4ccc(F)cc4)nc3c2)CC1 [BC19309]
< 100 nM,> 10 µM,–,–,CC(=O)N1CCC(C(=O)Nc2ccc3nc(-c4ccc(F)cc4)c(-c4ccc(F)cc4)nc3c2)CC1 [BC19310]
< 100 nM,> 10 µM,–,–,CNC(=O)N1CCC(C(=O)Nc2ccc3nc(-c4ccc(F)cc4)c(-c4ccc(F)cc4)nc3c2)CC1 [BC19311]

IC50 (NF-κB; LPS-stimulated),IC50 (TNF release; [1]),IC50 (NF-κB; [2]),IC50 (TNF release; [3]),SMILES
< 100 nM,1 to 10 µM,–,–,CS(=O)(=O)N1CCC(C(=O)Nc2ccc3nc(-c4ccc(F)cc4)c(-c4ccc(F)cc4)nc3c2)CC1 [BC19312]
100 to 1000 nM,1 to 10 µM,–,–,C=CC(=O)Nc1ccc2nc(-c3ccc(F)cc3)c(-c3ccc(F)cc3)nc2c1 [BC19313]
< 100 nM,1 to 10 µM,–,–,CC#CC(=O)Nc1ccc2nc(-c3ccc(F)cc3)c(-c3ccc(F)cc3)nc2c1 [BC19314]
100 to 1000 nM,> 10 µM,–,–,C[C@H](Cl)C(=O)Nc1ccc2nc(-c3ccc(F)cc3)c(-c3ccc(F)cc3)nc2c1 [BC19315]
100 to 1000 nM,> 10 µM,–,–,CN1CCN(C(=O)c2ccc3nc(-c4ccc(F)cc4)c(-c4ccc(C#N)cc4)nc3c2)CC1 [BC19316]
< 100 nM,> 10 µM,–,–,CN1CCN(C(=O)c2ccc3nc(-c4ccc(F)cc4)c(-c4ccc(Cl)cc4)nc3c2)CC1 [BC19317]
< 100 nM,> 10 µM,–,–,CN1CCN(C(=O)c2ccc3nc(-c4ccc(F)cc4)c(-c4ccc(F)cc4F)nc3c2)CC1 [BC19318]
1000 to 10000 nM,> 10 µM,–,–,CCc1ccc(-c2nc3cc(C(=O)N4CCN(C)CC4)ccc3nc2-c2ccc(F)cc2)cc1 [BC19319]
> 10000 nM,> 10 µM,–,–,O=C(O)c1cccc2nc(-c3ccc(F)cc3)c(-c3ccc(F)cc3)nc12 [BC19320]
1000 to 10000 nM,> 10 µM,–,–,C#CCNC(=O)c1cccc2nc(-c3ccc(F)cc3)c(-c3ccc(F)cc3)nc12 [BC19321]
–,–,1000 to 10000 nM,> 10 µM,Cc1ccc(S(=O)(=O)c2c(O)[nH]c3ncccc3c2=O)cc1F [BC19322]
–,–,> 10000 nM,> 10 µM,O=c1c(S(=O)(=O)c2ccc(F)cc2)c(O)[nH]c2ncccc12 [BC19323]
–,–,> 10000 nM,0.1 to 1 µM,Nc1cccc2cc(S(=O)(=O)c3ccccc3)cnc12 [BC19324]
–,–,> 10000 nM,1 to 10 µM,CNc1cccc2cc(S(=O)(=O)c3ccccc3)cnc12 [BC19325]
–,–,> 10000 nM,1 to 10 µM,CN(C)c1cccc2cc(S(=O)(=O)c3ccccc3)cnc12 [BC19326]
1000 to 10000 nM,1 to 10 µM,–,–,O=S(=O)(c1cccc(F)c1)c1nc(-c2ccccc2)oc1[S+]([O-])C1CCCCC1 (stereo not shown) [BC19327]
< 100 nM,0.1 to 1 µM,–,–,O=S(=O)(c1cccc(F)c1)c1nc(-c2ccccc2)oc1S(=O)(=O)C1CCCCC1 [BC19328]
< 100 nM,< 0.1 µM,–,–,CS(=O)(=O)c1oc(-c2ccccc2)nc1S(=O)(=O)c1ccc(Cl)cc1 [BC19329]
100 to 1000 nM,0.1 to 1 µM,–,–,O=S(=O)(CC1CC1)c1oc(-c2ccccc2)nc1S(=O)(=O)c1ccc(Cl)cc1 [BC19330]
< 100 nM,< 0.1 µM,–,–,COCCS(=O)(=O)c1oc(-c2ccccc2)nc1S(=O)(=O)c1ccc(Cl)cc1 [BC19331]
100 to 1000 nM,< 0.1 µM,–,–,CCC[S+]([O-])c1oc(-c2ccc(F)cc2)nc1S(=O)(=O)c1ccc(Cl)cc1 (stereo not shown) [BC19332]
< 100 nM,< 0.1 µM,–,–,COCCS(=O)(=O)c1oc(-c2ccc(F)cc2)nc1S(=O)(=O)c1ccc(Cl)cc1 [BC19333]
